Test results taken from US9265755B2, “Stem cell administration to reduce TNF-α level in CSF of an autism spectrum disorder or pervasive development disorder patient” (priority 2009, dated 2016).
“Also recorded” adds a separate entry of the source.

Legend:
[1] = tested on: patient with co-morbid autism condition and inflammatory colitis; assay: Co-morbid autism condition in a single patient treated with infliximab; format: in vivo, human; conditions: in just days of treatment
Text: This patient regressed and became autistic […] with the onset of their inflammatory colitis condition becoming clinically obvious at a later date.

TNF-α = TNF-α levels in CSF and serum of autism spectrum patients treated with lenalinomide; format: in vivo, human
[2] = tested on: patients diagnosed with an autism spectrum condition; assay: Clinical language, social skills, CARS and EEG outcome in the lenalinomide study; format: in vivo, human
autism spectrum subjects = assay: Clinical improvement with lenalidomide outside of the study; format: in vivo, human; conditions: 2.5 to 10 mg; four subjects outside of the study
Interleukin-1β = assay: Serum Interleukin-1β levels with lenalidomide outside of the study; format: in vivo, human; conditions: 2.5 to 10 mg; 2 subjects; 12 to 24 weeks of therapy
[3] = tested on: patients with autistic regression and abnormal EEG; assay: Thalidomide in patients with autistic regression and abnormal EEG
[4] = tested on: test subjects with autism spectrum condition; assay: L-Carnosine in test subjects with autism spectrum condition (language, CARS); format: in vivo, human
[5] = 2.5 mg per day, in 6 to 12 weeks, four patients with TNF-α CSF elevation over serum levels
[6] = after 4 to 12 weeks off the medication
[7] = 25 to 50 mg per day for 2 to 4 months, six patients

Infliximab
co-morbid autism condition [1]: improvement

Nc1cccc2c1CN(C1CCC(=O)NC1=O)C2=O (stereo not shown) [Lenalinomide]
levels of TNF-α in CSF (TNF-α; [5]): lowered levels
levels of TNF-α in serum (TNF-α; [5]): lowered levels
TNF-α levels in serum after withdrawal of the medication (TNF-α; [6]): increased
CSF and serum ratios of TNF-α and other inflammatory cytokines (TNF-α; when TNF-α is elevated in an inflammatory response): lowering
EEG in patients with abnormal EEG ([2]; 2.5 mg per day): showed improvement; also recorded: may have improved
patients with elevated TNF-α levels in CSF and serum improved over baseline clinically ([2]; 2.5 mg per day (4/6 of completed study)): four out of four
CGI rating scale for language expression ([2]; 2.5 mg per day, FIG. 2a): Improvement
CGI rating scale for receptive language ([2]; 2.5 mg per day, FIG. 2b): Improvement
CGI rating scale for social skills ([2]; 2.5 mg per day, FIG. 3): Improvement
neuropsychological testing, receptive one-word test ([2]; 2.5 mg per day, FIG. 4a): Improvement
neuropsychological testing, expressive one-word test ([2]; 2.5 mg per day, FIG. 4b): Improvement
Childhood Autism Rating Scale Scores (CARS) ([2]; 2.5 mg per day, four patients): improved
language skills ([2]; 2.5 mg per day, four patients): improved
social skills ([2]; 2.5 mg per day, four patients): improved
skills after withdrawal of the medication [2, 6]: regressed
clinical state when medication was re-introduced ([2]; re-introduced at 2.5 to 5 mg per day, three patients): improved
clinical improvement (autism spectrum subjects): great clinical improvement
Interleukin-1β levels in serum (Interleukin-1β): lower

O=C1CCC(N2C(=O)c3ccccc3C2=O)C(=O)N1 (stereo not shown) [Thalidomide]
EEG [3, 7]: improved
clinical global improvement [3, 7]: clinical global improvement occurred
clinical state of patients with autistic regression and abnormal EEG ([3]; patients who previously showed immune partial response to oral or injectable corticosteroids): improvement

NCCC(=O)N[C@@H](Cc1cnc[nH]1)C(=O)O [L-Carnosine]
language function, receptive one word vocabulary testing scores ([4]; 800 mg per day, after 6 and 12 weeks of treatment, compared to placebo): improvement
CARS scores ([4]; 800 to 1000 mg, over 8 weeks): CARS scores improvement
language ([4]; 800 to 1000 mg, over 8 weeks): language improvement
